PMC6179904 (Developmental Cell, 2018)

System: Jurkat T-cells
Type: cell-based, human

| SMILES | LCK localization ratio (LR) at the immune synapse |
| --- | --- |
| Nc1ncnc2c1c(-c1ccc(Oc3ccccc3)cc1)cn2C1CCCC1 [LCK inhibitor (CAS 213743-31-8)] | 1.05 |
| CCOC(=O)N1CCC(Nc2c(NCCN3CCN(c4cccc(C(F)(F)F)c4)CC3)c(=O)c2=O)CC1 [squarunkin A] | 0.94 |
